From patent US20150322038A1, “PYRAZINE DERIVATIVES AND THEIR USE IN THE TREATMENT OF NEUROLOGICAL DISORDERS” (NOVARTIS AG, priority 2009, published 2015) come the findings set out here.

For orientation: IC50 means the concentration that gives 50% inhibition.

Structures can show the parent of a compound that is named as a salt.

The target of one experiment is human BACE-1 (Homo sapiens, UniProt P56817). The experiment can be described thus: Test 1: Inhibition of human BACE-1. Conditions: recombinant BACE-1, pH 4.5, fluorescence-quenched APP-derived peptide substrate. Type of experiment: biochemical. The procedure: Test 1: Inhibition of Human BACE-1
IC50 values are calculated from percentage of inhibition of BACE-1 activity as a function of the test compound concentration.

Experiment [1] deals with cellular release of amyloid peptide 1-40. Put plainly: Test 4: Inhibition of cellular release of amyloid peptide 1-40. The format is cell-based. Particulars: Cricetulus griseus, Chinese hamster ovary cells transfected with the gene for amyloid precursor protein, 24 hours with compound, amyloid peptide 1-40 in supernatant, read-out: Bace IC50. The procedure:
Test 4: Inhibition of Cellular Release of Amyloid Peptide 1-40
Chinese hamster ovary cells are transfected with the gene for amyloid precursor protein. The cells are plated at a density of 8000 cells/well into 96-well microtiter plates and cultivated for 24 hours in DMEM cell culture medium containing 10% FCS. The test compound is added to the cells at various concentrations, and the cells are cultivated for 24 hours in the presence of the test compound. The supernatants are collected, and the concentration of amyloid peptide 1-40 is determined using state of the art immunoassay techniques, for example sandwich ELISA, homogenous time-resolved fluorescence (HTRF) immunoassay, or electro-chemiluminescence immunoassay. The potency of the compound is calculated from the percentage of inhibition of amyloid peptide release as a function of the test compound concentration.

Chain of human BACE-1 (P56817 46-457 limits assumed): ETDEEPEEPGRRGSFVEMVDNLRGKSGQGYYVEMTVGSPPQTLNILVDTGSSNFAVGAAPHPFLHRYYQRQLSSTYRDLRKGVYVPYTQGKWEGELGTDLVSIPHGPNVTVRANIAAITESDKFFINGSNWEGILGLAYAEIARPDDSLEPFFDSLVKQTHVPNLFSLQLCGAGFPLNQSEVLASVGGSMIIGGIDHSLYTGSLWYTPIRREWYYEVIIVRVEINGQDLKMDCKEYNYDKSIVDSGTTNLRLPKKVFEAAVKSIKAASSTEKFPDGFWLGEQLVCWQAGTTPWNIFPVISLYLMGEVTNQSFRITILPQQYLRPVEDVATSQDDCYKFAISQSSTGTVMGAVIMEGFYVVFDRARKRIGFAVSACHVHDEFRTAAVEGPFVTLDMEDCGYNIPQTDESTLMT

Regarding `CCC1C(N)=NC(C)(c2cccc(NC(=O)c3ccc(Br)cn3)c2)C(=O)N1C` (mixture of isomers) [Example 15, 5-Bromo-pyridine-2-carboxylic acid [3-(6-amino-5-ethyl-2,4-dimethyl-3-oxo-2,3,4,5-tetrahydro-pyrazin-2-yl)-phenyl]-amide], the half-inhibitory concentration (IC50) at human BACE-1 was found to be 1300 nM; in experiment [1] it was 980 nM.

For `Cc1cc(OC(F)F)cnc1C(=O)Nc1ccc(F)c([C@]2(C(F)F)CNCC(N)=N2)c1` (single isomer, unassigned) [Example 27], the IC50 on human BACE-1 is 22 nM; in experiment [1], 12 nM.

With `COc1cnc(C(=O)Nc2ccc(F)c([C@]3(C(F)F)CNCC(N)=N3)c2)c(N)n1` (single isomer, unassigned) [Example 28], the IC50 at human BACE-1 is 20 nM; in experiment [1], 5.7 nM.

As to `CN1CC(N)=NC(C)(c2cc(NC(=O)c3ccc(Br)cn3)ccc2F)C1=O` (stereo not drawn) [Example 1, 5-Bromo-pyridine-2-carboxylic acid [3-(6-amino-2,4-dimethyl-3-oxo-2,3,4,5-tetrahydro-pyrazin-2-yl)-4-fluoro-phenyl]-amide], the values for the half-maximal inhibitory concentration (IC50) (on human BACE-1; in experiment [1]) were 4100 nM and 3200 nM, respectively.

`CN1CC(N)=NC(C)(c2cc(NC(=O)c3ccc(Br)cn3)ccc2F)C1` (stereo not drawn) [Example 2, 5-Bromo-pyridine-2-carboxylic acid [3-(6-amino-2,4-dimethyl-2,3,4,5-tetrahydro-pyrazin-2-yl)-4-fluoro-phenyl]-amide]: the results for the IC50 (at human BACE-1; in experiment [1]) were 180 nM and 120 nM, respectively.

On to `CN1CC(N)=NC(C)(c2cccc(NC(=O)c3ccc(Br)cn3)c2)C1=O` (stereo not drawn) [Example 3, 5-Bromo-pyridine-2-carboxylic acid [3-(6-amino-2,4-dimethyl-3-oxo-2,3,4,5-tetrahydro-pyrazin-2-yl)-phenyl]-amide], for which the IC50 at human BACE-1 is 400 nM; in experiment [1], 260 nM.

`CN1CC(C)(c2cc(NC(=O)c3ccc(Br)cn3)ccc2F)N=C(N)C1=O` (stereo not drawn) [Example 4, 5-Bromo-pyridine-2-carboxylic acid [3-(6-amino-2,4-dimethyl-5-oxo-2,3,4,5-tetrahydro-pyrazin-2-yl)-4-fluoro-phenyl]-amide hydrochloride]: the IC50 amounted to 95 nM at human BACE-1 and 91 nM in experiment [1].

Turning to `CN1CC(C)(c2cc(NC(=O)c3ccc(Cl)cn3)ccc2F)N=C(N)C1=O` (stereo not drawn) [Example 5, 5-Chloro-pyridine-2-carboxylic acid [3-(6-amino-2,4-dimethyl-5-oxo-2,3,4,5-tetrahydro-pyrazin-2-yl)-4-fluoro-phenyl]-amide hydrochloride], the 50% inhibitory concentration (IC50) in experiment [1] stood at 190 nM.

For `CCN1CC(C)(c2cc(NC(=O)c3ccc(Br)cn3)ccc2F)N=C(N)C1=O` (stereo not drawn) [Example 6, 5-Bromo-pyridine-2-carboxylic acid [3-(6-amino-4-ethyl-2-methyl-5-oxo-2,3,4,5-tetrahydro-pyrazin-2-yl)-4-fluoro-phenyl]-amide hydrochloride], the values for the IC50 (on human BACE-1; in experiment [1]) were 51 nM and 59 nM, respectively.

As for `CN1CC(C)(c2cc(NC(=O)c3ncc(Cl)cc3Cl)ccc2F)N=C(N)C1=O` (stereo not drawn) [Example 7, 3,5-Dichloro-pyridine-2-carboxylic acid [3-(6-amino-2,4-dimethyl-5-oxo-2,3,4,5-tetrahydro-pyrazin-2-yl)-4-fluoro-phenyl]-amide hydrochloride], the IC50 on human BACE-1 was 68 nM; in experiment [1], 160 nM.

As for `CCN1CC(C)(c2cc(NC(=O)c3ncc(Cl)cc3Cl)ccc2F)N=C(N)C1=O` (stereo not drawn) [Example 8, 3,5-Dichloro-pyridine-2-carboxylic acid [3-(6-amino-4-ethyl-2-methyl-5-oxo-2,3,4,5-tetrahydro-pyrazin-2-yl)-4-fluoro-phenyl]-amide hydrochloride], the 50% inhibitory concentration (IC50) was 21 nM at human BACE-1 and 74 nM in experiment [1].

Take `CC(C)N1CC(C)(c2cc(NC(=O)c3ccc(Br)cn3)ccc2F)N=C(N)C1=O` (stereo not drawn) [Example 9, 5-Bromo-pyridine-2-carboxylic acid [3-(6-amino-4-isopropyl-2-methyl-5-oxo-2,3,4,5-tetrahydro-pyrazin-2-yl)-4-fluoro-phenyl]-amide hydrochloride]: the IC50 on human BACE-1 worked out at 33 nM; in experiment [1], 37 nM.

In the case of `COCCN1CC(C)(c2cc(NC(=O)c3ncc(Cl)cc3Cl)ccc2F)N=C(N)C1=O` (stereo not drawn) [Example 10, 3,5-Dichloro-pyridine-2-carboxylic acid {3-[6-amino-4-(2-methoxy-ethyl)-2-methyl-5-oxo-2,3,4,5-tetrahydro-pyrazin-2-yl]-4-fluoro-phenyl}-amide hydrochloride], the values for the IC50 (on human BACE-1; in experiment [1]) were 34 nM and 74 nM, respectively.

Turning to `COCCN1CC(C)(c2cc(NC(=O)c3ccc(Br)cn3)ccc2F)N=C(N)C1=O` (stereo not drawn) [Example 11, 5-Bromo-pyridine-2-carboxylic acid {3-[6-amino-4-(2-methoxy-ethyl)-2-methyl-5-oxo-2,3,4,5-tetrahydro-pyrazin-2-yl]-4-fluoro-phenyl}-amide hydrochloride], the results for the IC50 (at human BACE-1; in experiment [1]) were 20 nM and 40 nM, respectively.

For `Cn1cc(N2CC(C)(c3cc(NC(=O)c4ccc(Br)cn4)ccc3F)N=C(N)C2=O)cn1` (stereo not drawn) [Example 12, 5-Bromo-pyridine-2-carboxylic acid {3-[6-amino-2-methyl-4-(1-methyl-1H-pyrazol-4-yl)-5-oxo-2,3,4,5-tetrahydro-pyrazin-2-yl]-4-fluoro-phenyl}-amide hydrochloride], the IC50 came out at 20 nM on human BACE-1 and 84 nM in experiment [1].

`CC1(c2cc(NC(=O)c3ccc(Br)cn3)ccc2F)CN(c2cccnc2)C(=O)C(N)=N1` (stereo not drawn) [Example 13, 5-Bromo-pyridine-2-carboxylic acid [3-(6-amino-2-methyl-5-oxo-4-pyridin-3-yl-2,3,4,5-tetrahydro-pyrazin-2-yl)-4-fluoro-phenyl]-amide hydrochloride]: the IC50 worked out at 7 nM at human BACE-1 and 280 nM in experiment [1].

`CCN1CC(C)(c2cc(NC(=O)c3ccc(C#N)cn3)ccc2F)N=C(N)C1=O` (stereo not drawn) [Example 14, 5-Cyano-pyridine-2-carboxylic acid [3-(6-amino-4-ethyl-2-methyl-5-oxo-2,3,4,5-tetrahydro-pyrazin-2-yl)-4-fluoro-phenyl]-amide hydrochloride]: the IC50 at human BACE-1 amounted to 63 nM; in experiment [1], 130 nM.

With `NC1=NC(c2cc(NC(=O)c3ccc(Br)cn3)ccc2F)(C(F)F)CNC1` (stereo not drawn) [Example 16, 5-Bromo-pyridine-2-carboxylic acid [3-(6-amino-2-difluoromethyl-2,3,4,5-tetrahydro-pyrazin-2-yl)-4-fluoro-phenyl]-amide], the values for the IC50 (on human BACE-1; in experiment [1]) were 30 nM and 6.7 nM, respectively.

Take `N#Cc1ccc(C(=O)Nc2ccc(F)c(C3(C(F)F)CNCC(N)=N3)c2)nc1` (stereo not drawn) [Example 17, 5-Cyano-pyridine-2-carboxylic acid [3-(6-amino-2-difluoromethyl-2,3,4,5-tetrahydro-pyrazin-2-yl)-4-fluoro-phenyl]-amide]: the IC50 is 28 nM at human BACE-1 and 74 nM in experiment [1].

For the compound `N#Cc1ccc(C(=O)Nc2ccc(F)c(C3(C(F)F)CNC(=O)C(N)=N3)c2)nc1` (stereo not drawn) [Example 18, 5-Cyano-pyridine-2-carboxylic acid [3-(6-amino-2-difluoromethyl-5-oxo-2,3,4,5-tetrahydro-pyrazin-2-yl)-4-fluoro-phenyl]-amide], the figures for the IC50 (on human BACE-1; in experiment [1]) were 21 nM and 61 nM, respectively.
